Assay in all cases: NCI anticancer screen, dose series, 48 h
Test [1] has as its system EKVX NSCLC.
The subject of test [2] is U251 CNS.
The test system of test [3] is UACC-62 melanoma.
The test system of test [4] is A549 NSCLC.
Test [5] concerns MOLT-4 leukemia.
The test system of test [6] is SW-620 colon.
Test [7] deals with OVCAR-3 ovarian.
The test system of test [8] is SF-539 CNS.
Test [9] deals with SNB-19 CNS.
Test [10] concerns CAKI-1 renal.

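Compound exposure: 48 hours, 5 concentrations, 96-well plates. At the GI50, growth is halved. TGI denotes the concentration required for complete inhibition of growth.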 Bounds are passed on as bounds.

For `CCOC(=O)c1cnc(SCc2ccc(Cl)c(Cl)c2)nc1N1CC1`, the GI50 in test [1] was 3.8 µM; in [2] it was 3.71 µM; in [3] it was 4.23 µM; in test [4], 3.72 µM; in [5] it was 3.27 µM; in [6], 1.74 µM. Also, the GI50 was 2.63 µM in test [7], 3.3 µM in test [8], 6.93 µM in [9] and 2.08 µM in test [10]. For the same compound, the TGI in test [1] worked out at 18.6 µM; in test [2], 18.2 µM; in test [3], 19.5 µM; in test [4] it was 16.1 µM; in [5], 15 µM; in test [6] it was 13.8 µM. Besides, the TGI was determined as 7 µM in test [7], 12.3 µM in test [8], 23.8 µM in test [9] and 6.98 µM in test [10].

Turning to `C1=CN2C[n+]3cccc(OCc4ccccc4)c3N=C2C(OCc2ccccc2)=C1`, the TGI in [1] was greater than 100 µM; in test [2], greater than 100 µM; in test [3], 26.6 µM; in [4] it was greater than 100 µM; in test [6], greater than 100 µM; in test [7], 25 µM. Besides, the TGI worked out at 26.7 µM in test [8], 27.2 µM in [9] and 73.1 µM in test [10].

In the case of `O=C(Nc1ccncc1)C(=O)c1cn(S(=O)(=O)c2ccc(Br)cc2)c2ccccc12`, the GI50 in test [1] is 3.81 µM; in [2], 6.41 µM; in test [3] it was 3.79 µM; in [4], 15.6 µM; in test [6], 4.18 µM; in test [7], 4.54 µM. Further, the GI50 in [8] was 8.03 µM; in test [9], 14.1 µM; in test [10], 4.44 µM. In addition, the TGI in [1], in test [2], in test [3], in test [4], in [6] and in test [7] was greater than 100 µM each time. For the same compound, the TGI in [8], in test [9] and in test [10] was greater than 100 µM throughout.

Consider `CC(Cl)(/C=C/Cl)C(Cl)/C=C/C(Cl)(CCl)CBr` (stereo unspecified), for which the TGI in test [1] was greater than 77.3 µM; in test [2] it was 8.37 µM; in [3], 5.2 µM; in test [4], 47.3 µM; in [5], 3.36 µM; in test [6], 8 µM. Moreover, the TGI was found to be 25.3 µM in test [7], 27.3 µM in test [9] and 28.1 µM in [10].

For the compound `Cn1nc(-c2ccccc2NC(=O)C(F)(F)F)c(=O)n(C)c1=S`, the TGI was 86.5 µM in [1]; greater than 100 µM in test [2]; greater than 100 µM in test [4]; greater than 100 µM in [5]; greater than 100 µM in test [6]; 40.6 µM in test [7]. The TGI in test [8] was 83.9 µM; in test [9], greater than 100 µM; in test [10], 89.4 µM.

Regarding `NNC(=O)/C(=C/c1cccc([N+](=O)[O-])c1)NC(=O)c1ccccc1`, the TGI in test [1], in [2], in [4], in [5], in test [6] and in test [7] was greater than 100 µM each time. Also, the TGI in test [8], in test [9] and in [10] was greater than 100 µM throughout.

For the compound `COC(=O)Nc1nc2ccc(C(=O)c3ccc[nH]3)cc2[nH]1`, the TGI in test [1], in [2], in [3], in test [4], in test [5] and in [6] was greater than 100 µM each time. The TGI is 42.3 µM in test [8], greater than 54.7 µM in test [9] and greater than 100 µM in test [10].

Consider `C/C(=N\NC(=S)Nc1ccc(C(=O)O)cc1)c1ccccn1`, for which the TGI in test [1] is greater than 100 µM; in test [2], 58.3 µM; in test [3], 21.9 µM; in test [4], greater than 100 µM; in [5] it was greater than 100 µM; in test [6] it was 39.1 µM. The TGI in test [7] was 47.8 µM; in test [8] it was 40.3 µM; in test [10] it was 80.5 µM.

For the compound `CC(Cc1ccc(Cl)cc1Cl)NO` (stereo unspecified), the TGI in [1], in test [2], in [3], in test [4], in [5] and in [6] was greater than 100 µM in each case. Moreover, the TGI in [7], in test [9] and in test [10] was greater than 100 µM in each case.

`CCOC(=O)c1cccc(=O)c(C(=O)OCC)c1`: the TGI in test [1], in [2], in test [3], in test [4], in [5] and in test [6] was greater than 100 µM throughout. The values for the TGI in test [7], in [8] and in test [10] were greater than 100 µM, 75.9 µM and greater than 100 µM, respectively.

Regarding `CC(=O)Oc1c(C)n(CCCl)ccc1=O`, the TGI in test [1], in [2], in test [3], in test [4], in test [5] and in test [7] was greater than 100 µM throughout. In addition, the TGI in [9] and in test [10] was greater than 100 µM in each case.

On to `NC(N)=NC(CC(=O)O)c1ccccc1` (stereo unspecified), for which the TGI in test [1], in test [2], in test [3], in test [4], in test [6] and in test [7] was greater than 100 µM throughout. Besides, the TGI in [8], in [9] and in [10] was greater than 100 µM each time.

With `CC1=COC(=O)c2ccccc2N1`, the TGI in test [1], in test [2], in test [3], in test [4], in [6] and in [7] was greater than 100 µM each time. The TGI in [8], in test [9] and in [10] was greater than 100 µM each time.

Values taken from PubChem BioAssay (NCI).
